Assay results as given in patent US5045543A, “5-amino or substituted amino 1,2,3-triazoles useful as antimetastatic agents” (Merck & Co., Inc., priority 1989, dated 1991).

Experiments:
[1] = system: nucleotide pools in mammalian cells; assay: Inhibition of nucleotide biosynthesis: incorporation of hypoxanthine, adenine, formate into nucleotide pools of mammalian cells; assay type: cell-based; conditions: 1 μg/ml
rat PMN's = assay: Eicosanoid production in rat PMN's; assay type: cell-based; conditions: 1 μg/ml
PRPP synthetase [2] = assay: Direct inhibition of PRPP synthetase in vitro; assay type: biochemical; conditions: in vitro studies
MDBK cells = assay: Inhibition of the growth of MDBK cells; assay type: cell-based, Bovine; conditions: for inhibition at 1 µg/mL / inhibition at 2 µg/mL: Bos taurus, MDBK
Protocol: (§1) The inhibition of PRPP biosynthesis by Compound A and analogs supported the claimed use of the compounds as antiproliferative agents, since this inhibition should prevent all de novo and salvage biosynthesis of purine and pyrimidine nucleotides. […] The data from NHEK's is particularly important since it is the overproliferation of these cells that occurs in psoriasis.
(§2) In these experiments Murine keratinocyte transformed cell line PAPp26 was cultured in Dulbecco's modified Eagle's medium with 10% fetal calf serum at 37° C., 5% CO2. Each well of a 96 well plate was seeded with 2000 cells in 200 μl of each drug dilution in duplicate. A plate was stopped and fixed for each time point, stained with Giemsa and then read in a Titertek plate reader at 650 nm, and the absorbances were calibrated with known cell numbers on control plates. NHEK's were obtained from Clonetics Corporation at the secondary stage. Antiproliferative assays were done as for the murine keratinocytes. Media (KGM) without serum was supplied by Clonetics also. Normal Human Fibroblasts and MDBK cells were grown under the same conditions except that MDBK cells were grown at 41° C.

PRPP synthetase [3] = assay: PRPP synthetase activity / PRPP biosynthesis in cell based experiments
[4] = system: Maden Darby Bovine Kidney (MDBK) cells; assay: 3H-Hypoxanthine uptake (incorporation) into MDBK cells; assay type: cell-based; conditions: 1.0 μg/ml; for inhibition at 1 µg/mL: Bos taurus, MDBK
Protocol: Compound A and analogs are capable of inhibiting nucleotide biosynthesis in a variety of mammalian cell types.
Confluent cells were incubated in Eagles Minimal Essential media for 2.5 hours, then incubated with Phosphate buffered saline +Ca +Mg for 30 minutes, and then they were incubated with or without 1 μg/ml Compound A for 15 minutes. Media containing 100 μM 8-^3 H-hypoxanthine with or without drug was incubated for the time shown with the cells after which they were quenched by immersion in ice cold buffer. The DPM measurements were made on aliquots of neutralized perchloric acid supernatants.

Normal Human Fibroblasts = assay: Inhibition of fibroblast growth; assay type: cell-based; conditions: for inhibition at 0.1 µg/mL / inhibition at 0.2 µg/mL / inhibition at 0.4 µg/mL / inhibition at 1 µg/mL / inhibition at 2 µg/mL: Homo sapiens, Fibroblast
Protocol: as §1, §2

[5] = system: keratinocyte proliferation; assay: Keratinocyte proliferation measured by metaphase arrest with colchicine; assay type: in vivo, pig
[6] = system: a number of cell types including the Normal Human Epidermal Keratinocytes; assay: Antiproliferative activity (general statements); assay type: cell-based; conditions: in vitro; Compound A at the same concentrations (1 μg/ml)
5-lipoxygenase = assay: Direct inhibition of 5-lipoxygenase; assay type: biochemical

With `NC(=O)c1nnn(Cc2cc(Cl)c(C(=O)c3ccc(Cl)cc3)c(Cl)c2)c1N` [Compound A, 5-amino-1-(4-(4-chlorobenzoyl)-3,5-dichlorobenzyl)-1,2,3-triazole-4-carboxamide] the “adenine incorporation into nucleotide pools” value ([1]; mammalian cells) was “disrupted”, the “formate incorporation into nucleotide pools” value ([1]; mammalian cells) was “disrupted” and the “hypoxanthine incorporation into nucleotide pools” value ([1]; mammalian cells) was “disrupted”. The “inhibition of nucleotide biosynthesis” value ([1]; variety of mammalian cells in monolayer culture) was “efficacy”, the “inhibition of 5-HETE production” value (rat PMN's) was “inhibit” and the “inhibition of HHT production” value (rat PMN's) was “inhibit”. The “inhibition of LTB4 production” value (rat PMN's) was “inhibit”, the “direct inhibition of PRPP synthetase” value (PRPP synthetase [2]) was “no direct inhibition of the enzyme occurred” and the “MDBK growth, # Cells × 10^6 - # Cells Seeded” value (shortened to “MDBK growth”) (MDBK cells; 1.0 μg/ml, 1 day, control 1.40) was 0 × 10^6. For the same compound, the “MDBK growth” value (MDBK cells; 1.0 μg/ml, 3 days, control 4.86) was 3.12 × 10^6, the “MDBK growth” value (MDBK cells; 2.0 μg/ml, 1 day, control 1.40) was 0 × 10^6 and the “MDBK growth” value (MDBK cells; 2.0 μg/ml, 3 days, control 4.86) was 0 × 10^6. The inhibition at 1 µg/mL (MDBK cells; 24 h, 1.0 μg/ml, 1 day) was 100%, the inhibition at 2 µg/mL (MDBK cells; 24 h, 2.0 μg/ml, 1 day) was 100% and the inhibition at 1 µg/mL (MDBK cells; 72 h, 1.0 μg/ml, 3 days) was 36%. The inhibition at 2 µg/mL (MDBK cells; 72 h, 2.0 μg/ml, 3 days) was 100%, the “inhibition of growth of MDBK cells” value (MDBK cells; approximately 1.0 μg/ml) was “substantial inhibition” and the PRPP synthetase activity (PRPP synthetase [3]) was “dramatically lowered”. For the same compound, the “3H-hypoxanthine incorporation into MDBK cells” value ([4]; Eagles Minimal Essential media) was “substantially reduced”, the “3H-Hypoxanthine Uptake, DPM” value ([4]; 10 min, control 87000) was 36000 DPM and the “3H-Hypoxanthine Uptake, DPM” value ([4]; 20 min, control 140000) was 40000 DPM. For the same compound, the “3H-Hypoxanthine Uptake, DPM” value ([4]; 30 min, control 190000) was 40000 DPM, the inhibition at 1 µg/mL ([4]; 10 min) was 59% and the inhibition at 1 µg/mL ([4]; 20 min) was 71%. For the same compound, the inhibition at 1 µg/mL ([4]; 30 min) was 79%, the “Fibroblast growth, No. of Cells - seeding cells” value (“Fibroblast growth, No. of Cells” for short) (Normal Human Fibroblasts; 0.1 μg/ml, 2 days, control 10.5 × 10^3) was 4 × 10^3 and the “Fibroblast growth, No. of Cells” value (Normal Human Fibroblasts; 0.1 μg/ml, 3 days, control 14 × 10^3) was 5 × 10^3. For the same compound, the “Fibroblast growth, No. of Cells” value (Normal Human Fibroblasts; 0.1 μg/ml, 6 days, control 23 × 10^3) was 19 × 10^3, the “Fibroblast growth, No. of Cells” value (Normal Human Fibroblasts; 0.2 μg/ml, 2 days, control 10.5 × 10^3) was 5 × 10^3 and the “Fibroblast growth, No. of Cells” value (Normal Human Fibroblasts; 0.2 μg/ml, 3 days, control 14 × 10^3) was 2 × 10^3. For the same compound, the “Fibroblast growth, No. of Cells” value (Normal Human Fibroblasts; 0.2 μg/ml, 6 days, control 23 × 10^3) was 16.5 × 10^3, the “Fibroblast growth, No. of Cells” value (Normal Human Fibroblasts; 0.4 μg/ml, 2 days, control 10.5 × 10^3) was 7 × 10^3 and the “Fibroblast growth, No. of Cells” value (Normal Human Fibroblasts; 0.4 μg/ml, 3 days, control 14 × 10^3) was 6.5 × 10^3. For the same compound, the “Fibroblast growth, No. of Cells” value (Normal Human Fibroblasts; 0.4 μg/ml, 6 days, control 23 × 10^3) was 13 × 10^3, the “Fibroblast growth, No. of Cells” value (Normal Human Fibroblasts; 1.0 μg/ml, 2 days, control 10.5 × 10^3) was 2 × 10^3 and the “Fibroblast growth, No. of Cells” value (Normal Human Fibroblasts; 1.0 μg/ml, 3 days, control 14 × 10^3) was 0. For the same compound, the “Fibroblast growth, No. of Cells” value (Normal Human Fibroblasts; 1.0 μg/ml, 6 days, control 23 × 10^3) was 6 × 10^3, the “Fibroblast growth, No. of Cells” value (Normal Human Fibroblasts; 2.0 μg/ml, 2 days, control 10.5 × 10^3) was 2 × 10^3 and the “Fibroblast growth, No. of Cells” value (Normal Human Fibroblasts; 2.0 μg/ml, 3 days, control 14 × 10^3) was “.5 × 10^3”. The “Fibroblast growth, No. of Cells” value (Normal Human Fibroblasts; 2.0 μg/ml, 6 days, control 23 × 10^3) was 4 × 10^3, the inhibition at 0.1 µg/mL (Normal Human Fibroblasts; 48 h, 0.1 μg/ml, 2 days) was 62% and the inhibition at 0.2 µg/mL (Normal Human Fibroblasts; 48 h, 0.2 μg/ml, 2 days) was 48%. For the same compound, the inhibition at 0.4 µg/mL (Normal Human Fibroblasts; 48 h, 0.4 μg/ml, 2 days) was 33%, the inhibition at 1 µg/mL (Normal Human Fibroblasts; 48 h, 1.0 μg/ml, 2 days) was 81% and the inhibition at 2 µg/mL (Normal Human Fibroblasts; 48 h, 2.0 μg/ml, 2 days) was 81%. It also gave an inhibition at 0.1 µg/mL (Normal Human Fibroblasts; 72 h, 0.1 μg/ml, 3 days) of 64%, an inhibition at 0.2 µg/mL (Normal Human Fibroblasts; 72 h, 0.2 μg/ml, 3 days) of 86% and an inhibition at 0.4 µg/mL (Normal Human Fibroblasts; 72 h, 0.4 μg/ml, 3 days) of 54%. For the same compound, the inhibition at 1 µg/mL (Normal Human Fibroblasts; 72 h, 1.0 μg/ml, 3 days) was 100%, the inhibition at 2 µg/mL (Normal Human Fibroblasts; 72 h, 2.0 μg/ml, 3 days) was 96% and the inhibition at 0.1 µg/mL (Normal Human Fibroblasts; 144 h, 0.1 μg/ml, 6 days) was 18%. For the same compound, the inhibition at 0.2 µg/mL (Normal Human Fibroblasts; 144 h, 0.2 μg/ml, 6 days) was 28%, the inhibition at 0.4 µg/mL (Normal Human Fibroblasts; 144 h, 0.4 μg/ml, 6 days) was 44% and the inhibition at 1 µg/mL (Normal Human Fibroblasts; 144 h, 1.0 μg/ml, 6 days) was 74%. For the same compound, the inhibition at 2 µg/mL (Normal Human Fibroblasts; 144 h, 2.0 μg/ml, 6 days) was 83%, the “inhibition of growth of Normal Human Fibroblasts” value (Normal Human Fibroblasts; approximately 1.0 μg/ml) was “substantial inhibition” and the “inhibition of keratinocyte proliferation” value [5] was “inhibits”. The antiproliferative activity [6] was “antiproliferative at the same concentrations” and the “direct inhibition of 5-lipoxygenase” value (5-lipoxygenase) was “no evidence of direct inhibition”.
